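The compound was tested at five concentrations on cells cultured in 96-well plates, with a 48-hour exposure period. Abbreviation: GI50, concentration required for 50% inhibition of growth. The concentration for full growth arrest is given as TGI.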
Key:
Test in all cases: DTP human tumour cell line panel, 48 h
ACHN renal = tested on: ACHN renal
SR leukemia = tested on: SR leukemia
786-0 renal = tested on: 786-0 renal
HCC-2998 colon = tested on: HCC-2998 colon
MALME-3M melanoma = tested on: MALME-3M melanoma
SK-MEL-28 melanoma = tested on: SK-MEL-28 melanoma
MDA-MB-435 = tested on: MDA-MB-435
RPMI-8226 leukemia = tested on: RPMI-8226 leukemia
CCRF-CEM leukemia = tested on: CCRF-CEM leukemia
SK-OV-3 ovarian = tested on: SK-OV-3 ovarian
T-47D breast = tested on: T-47D breast
DU-145 prostate = tested on: DU-145 prostate
SNB-75 CNS = tested on: SNB-75 CNS
HOP-92 NSCLC = tested on: HOP-92 NSCLC
TK-10 renal = tested on: TK-10 renal
SF-295 CNS = tested on: SF-295 CNS
HS 578T breast = tested on: HS 578T breast
PC-3 prostate = tested on: PC-3 prostate
CAKI-1 renal = tested on: CAKI-1 renal
BT-549 breast = tested on: BT-549 breast
KM12 colon = tested on: KM12 colon
A549 NSCLC = tested on: A549 NSCLC
LOX IMVI melanoma = tested on: LOX IMVI melanoma
SK-MEL-5 melanoma = tested on: SK-MEL-5 melanoma
NCI-H522 lung = tested on: NCI-H522 lung
MDA-MB-468 breast = tested on: MDA-MB-468 breast
HT29 colon = tested on: HT29 colon
M14 melanoma = tested on: M14 melanoma
HCT-116 colon = tested on: HCT-116 colon

O=C(CS(=O)(=O)c1oc(-c2ccc(Cl)cc2)nc1S(=O)(=O)c1ccccc1)N1CCCC1
GI50 (ACHN renal): 1.52 µM
TGI (ACHN renal): 2.85 µM
GI50 (SR leukemia): 2.6 µM
TGI (SR leukemia): > 100 µM
GI50 (786-0 renal): 1.51 µM
TGI (786-0 renal): 3.01 µM
GI50 (HCC-2998 colon): 14.5 µM
TGI (HCC-2998 colon): 28.7 µM
GI50 (MALME-3M melanoma): 1.69 µM
TGI (MALME-3M melanoma): 3.09 µM
GI50 (SK-MEL-28 melanoma): 3.58 µM
TGI (SK-MEL-28 melanoma): 12.5 µM
GI50 (MDA-MB-435): 2.88 µM
TGI (MDA-MB-435): 13.6 µM
GI50 (RPMI-8226 leukemia): 2.99 µM
TGI (RPMI-8226 leukemia): > 100 µM
GI50 (CCRF-CEM leukemia): 0.4 µM
TGI (CCRF-CEM leukemia): 2.36 µM
GI50 (SK-OV-3 ovarian): 18 µM
TGI (SK-OV-3 ovarian): 33 µM
GI50 (T-47D breast): 1.8 µM
TGI (T-47D breast): 4.47 µM
GI50 (DU-145 prostate): 1.76 µM
TGI (DU-145 prostate): 3.37 µM
GI50 (SNB-75 CNS): 10.1 µM
TGI (SNB-75 CNS): 23 µM
GI50 (HOP-92 NSCLC): 2.38 µM
TGI (HOP-92 NSCLC): 4.68 µM
GI50 (TK-10 renal): 1.75 µM
TGI (TK-10 renal): 3.19 µM
GI50 (SF-295 CNS): 13.4 µM
TGI (SF-295 CNS): 26.8 µM
GI50 (HS 578T breast): 7.21 µM
TGI (HS 578T breast): 53.9 µM
GI50 (PC-3 prostate): 9.59 µM
TGI (PC-3 prostate): 27.5 µM
GI50 (CAKI-1 renal): 1.41 µM
TGI (CAKI-1 renal): 2.75 µM
GI50 (BT-549 breast): 1.88 µM
TGI (BT-549 breast): 3.48 µM
GI50 (KM12 colon): 16.8 µM
TGI (KM12 colon): 33 µM
GI50 (A549 NSCLC): 14.3 µM
TGI (A549 NSCLC): 31.6 µM
GI50 (LOX IMVI melanoma): 1.49 µM
TGI (LOX IMVI melanoma): 2.86 µM
GI50 (SK-MEL-5 melanoma): 14.3 µM
TGI (SK-MEL-5 melanoma): 27.6 µM
GI50 (NCI-H522 lung): 1.11 µM
TGI (NCI-H522 lung): 2.53 µM
GI50 (MDA-MB-468 breast): 1.08 µM
TGI (MDA-MB-468 breast): 2.49 µM
GI50 (HT29 colon): 2.07 µM
TGI (HT29 colon): 5.07 µM
GI50 (M14 melanoma): 1.88 µM
TGI (M14 melanoma): 4.07 µM
GI50 (HCT-116 colon): 1.81 µM
TGI (HCT-116 colon): 4.07 µM
